Experimental data as given in US8247211B2, “Glycopeptide antibiotics” (American Cyanamid Company, priority 2001, dated 2012).

Key:
Assay in all cases: In vitro antibacterial evaluation: minimum inhibitory concentration (MIC), broth dilution method
Assay type in all cases: cell-based
Enterococcus sp. = conditions: 18 hours at 35° C.
Summary of the method: (§1)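 Susceptibility determined by NCCLS-recommended broth dilution (M7-A2), Muller-Hinton II […]. Concentration span 64-0.06 μg/mL, inoculum 5×10^5 CFU/mL. Isolates include strains resistant to methicillin, penicillin and/or vancomycin.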

Escherichia coli = Escherichia coli (GC 4560); 18 hours at 35° C.
Summary of the method: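 NCCLS M7-A2 broth dilution; Muller-Hinton II […]; 5×10^5 CFU/mL; 64-0.06 μg/mL. MIC = lowest concentration with no growth.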

Staphylococcus sp. = tested on: Staphylococcus sp.
Summary of the method: as §1

Streptococcus sp. = conditions: 18 hours at 35° C.
Summary of the method: as §1

[1] = broth dilution, inoculum 5×10^5 CFU/mL

CC(c1ccccc1)C1NC(=O)CNC(=O)C(CO)NC(=O)C(C(O)C2CNC(=N)N2C2OC(CO)C(O)C(O)C2O)NC(=O)C(C(O)C2CNC(=N)N2)NC(=O)C(Cc2ccc(OC3OC(CO)C(OC4OC5COC6(CCCCC6C)OC5C(O)C4O)C(O)C3O)cc2)NC1=O (stereo not drawn) [Example 204, Cyclo[glycyl-β-methylphenylalanyl-O-[4-O-[4,6-O-(2-methylcyclohexylidene)hexopyranosyl]hexopyranosyl]tyrosyl-3-(2-iminoimidazolidin-4-yl)seryl-3-(3-hexopyranosyl-2-iminoimidazolidin-4-yl)serylseryl]]
0.25 µg/mL: MIC Streptococcus pneumoniae (GC 1894) (Streptococcus sp.; Streptococcus pneumoniae (GC 1894)) | MIC Streptococcus pneumoniae (GC 1894) (Streptococcus sp.; [1])
16 µg/mL: MIC Enterococcus avium (GC 4558) (Enterococcus sp.; Enterococcus avium (GC 4558)) | MIC Enterococcus faecalis (ATCC 29212) (Enterococcus sp.; Enterococcus faecalis (ATCC 29212)) | MIC Enterococcus faecalis (GC 2242) (Enterococcus sp.; Enterococcus faecalis (GC 2242)) | MIC Enterococcus faecalis (GC 2691) (Enterococcus sp.; Enterococcus faecalis (GC 2691)) | MIC Enterococcus faecalis (GC 3059) (Enterococcus sp.; Enterococcus faecalis (GC 3059)) | MIC Enterococcus faecalis (GC 4552) (Enterococcus sp.; Enterococcus faecalis (GC 4552)) | MIC Enterococcus faecalis (GC 4553) (Enterococcus sp.; Enterococcus faecalis (GC 4553)) | MIC Enterococcus faecalis (GC 4554) (Enterococcus sp.; Enterococcus faecalis (GC 4554)) | MIC Enterococcus faecalis (GC 6189) (Enterococcus sp.; Enterococcus faecalis (GC 6189)) | MIC Enterococcus faecium (GC 2243) (Enterococcus sp.; Enterococcus faecium (GC 2243)) | MIC Enterococcus faecium (GC 4556) (Enterococcus sp.; Enterococcus faecium (GC 4556)) | MIC Enterococcus avium (GC 4558) (Enterococcus sp.; [1]) | MIC Enterococcus faecalis (ATCC 29212) (Enterococcus sp.; [1]) | MIC Enterococcus faecalis (GC 2242) (Enterococcus sp.; [1]) | MIC Enterococcus faecalis (GC 2691) (Enterococcus sp.; [1]) | MIC Enterococcus faecalis (GC 3059) (Enterococcus sp.; [1]) | MIC Enterococcus faecalis (GC 4552) (Enterococcus sp.; [1]) | MIC Enterococcus faecalis (GC 4553) (Enterococcus sp.; [1]) | MIC Enterococcus faecalis (GC 4554) (Enterococcus sp.; [1]) | MIC Enterococcus faecalis (GC 6189) (Enterococcus sp.; [1]) | MIC Enterococcus faecium (GC 2243) (Enterococcus sp.; [1]) | MIC Enterococcus faecium (GC 4556) (Enterococcus sp.; [1])
1 µg/mL: MIC Streptococcus agalactiae (GC 4564) (Streptococcus sp.; Streptococcus agalactiae (GC 4564)) | MIC Streptococcus agalactiae (GC 4564) (Streptococcus sp.; [1])
8 µg/mL: MIC Enterococcus faecium (GC 4557) (Enterococcus sp.; Enterococcus faecium (GC 4557)) | MIC Enterococcus faecium (GC 4557) (Enterococcus sp.; [1]) | MIC Staphylococcus aureus (GC 1131) (Staphylococcus sp.; strain GC 1131) | MIC Staphylococcus aureus (GC 3053) (Staphylococcus sp.; strain GC 3053) | MIC Staphylococcus aureus (GC 4544) (Staphylococcus sp.; strain GC 4544)
4 µg/mL: MIC Escherichia coli (GC 4560) (Escherichia coli) | MIC Staphylococcus aureus (ATCC 29213) (Staphylococcus sp.; strain ATCC 29213) | MIC Staphylococcus aureus (GC 3051) (Staphylococcus sp.; strain GC 3051) | MIC Staphylococcus aureus (GC 4541) (Staphylococcus sp.; strain GC 4541) | MIC Staphylococcus aureus (GC 4542) (Staphylococcus sp.; strain GC 4542) | MIC Staphylococcus aureus-SMITH (GC 4543) (Staphylococcus sp.; strain GC 4543) | MIC Staphylococcus aureus (GC 4545) (Staphylococcus sp.; strain GC 4545) | MIC Coagulase Negative Staphylococcus (GC 4547) (Staphylococcus sp.; strain GC 4547) | MIC Coagulase Negative Staphylococcus (GC 4548) (Staphylococcus sp.; strain GC 4548) | MIC Coagulase Negative Staphylococcus (GC 4551) (Staphylococcus sp.; strain GC 4551)
0.5 µg/mL: MIC Streptococcus pneumoniae (ATCC 6301) (Streptococcus sp.; Streptococcus pneumoniae (ATCC 6301)) | MIC Streptococcus pneumoniae (GC 4565) (Streptococcus sp.; Streptococcus pneumoniae (GC 4565)) | MIC Streptococcus pyogenes (GC 4563) (Streptococcus sp.; Streptococcus pyogenes (GC 4563)) | MIC Streptococcus pneumoniae (ATCC 6301) (Streptococcus sp.; [1]) | MIC Streptococcus pneumoniae (GC 4565) (Streptococcus sp.; [1]) | MIC Streptococcus pyogenes (GC 4563) (Streptococcus sp.; [1])
2 µg/mL: MIC Staphylococcus haemolyticus (GC 4546) (Staphylococcus sp.; strain GC 4546) | MIC Coagulase Negative Staphylococcus (GC 4549) (Staphylococcus sp.; strain GC 4549)
